From patent publication US6127342A, “Method for preventing or treating a lung disease caused by active oxygen and free radical injury” (Teijin Limited, priority 1991, dated 2000)

Experiments:
Type in all cases: in vivo
[1] = test system: liver ischemia-reperfusion model using rats; assay: Adenine nucleotides in hepatic vein immediately after starting reperfusion; settings: rat; 50 mg/kg i.v.
Experimental: (§1) Male Wister rats weighing 250-300 g were fasted with free access to water 24 hours before the experiment. Seventy-two rats were divided into three groups of 24 animals each, i.e., the control group, the GSH administration group and the γ-GCE-administration group. Each rat was anesthetized by intraperitoneal administration of 40 mg/0.8 ml/kg of sodium pentobarbital, and the femoral vein was cannulated. In the GSH group and the γ-GCE group, 50 mg/kg of GSH or γ-GCE respectively were administered intravenously. Physiological saline was then infused for volume replacement in each group, as a continuous intravenous infusion at a rate of 0.8 ml/hr with an injection pump throughout the experiment. Thirty minutes after starting injection of physiological saline, the abdomon was opened by a midline incision and the liver hilus was exposed. According to the method described by Hasselgren, et al. in J. Surg. Res., Vol. 34, pp. 409-414, 1984, all vessels to the left and median lobes of the liver, more specifically, hepatic artery, portal vein and the bile duct, were clamped to produce an ischemic state for 2 hours. Since blood vessels to the remaining parts of the liver were not occluded by this method, poral stasis could be avoided which was of special relevance for circulation stability in rats. Thereafter, occlusion of all vessels was released by removing the clamp to allow reperfusion for 1 hour. The abdominal walls were closed during ischemia and reperfusion. […]
(§2) Evaluation of ischemia-reperfusion injury was performed by measuring liver tissue (1) mitochondrial function, (2) glutathione concentration, (3) adenine nucleotides concentration, and (4) lipid peroxide concentration, as well as liver tissue derived (5) adenine nucleotides concentration in the hepatic vein immediately after starting reperfusion, and (6) liver cell enzyme activities in the blood after 1 hour of reperfusion. More specifically, the mitochondrial function in (1) was measured according to the method described by Chance, et al. in Adv. […] In addition, the quantitative determination of glutathione in (2) was performed using the same method as Experiment 1 on supernatant obtained by adding 10 vol/g of tissue weight of 2.5% (w/v) sulfosalicylic acid dihydrate aqueous solution to the liver tissue followed by homogenization and centrifugation. In addition, the quantitative determination of adenine nucleotides in (3) was performed by neutralizing the perchloric acid extract of the liver tissue with potassium hydroxide followed by removal of the precipitate and applying to an ion exchange HPLC column according to the method described by Sugino, et al. in J. Chromatogr., Vol. 361, pp. 427-431, 1986. […]

[2] = test system: cardiac muscle mitochondria; assay: Cardiac muscle mitochondrial function (St. III O2, RCI) after coronary ischemia-reperfusion; settings: dog; 10 mg/kg i.v. just before reperfusion; FIGS. 1A and 1B
Description: Electrocardiogram electrodes were attached, and monitoring and recording were continued throughout the experiment. Following insertion of cannulas in the right femoral vein and right femoral artery, the cannulas were used for continuous intravenous drip of physiological saline to replenish water or administration of the test preparation, and monitoring of arterial blood pressure, respectively. After performing left thoracotomy in the fourth or fifth intercostal space, the pericardium was torn to expose the heart. Ischemia was induced by ligating the left anterior descending coronary artery immediately distal to the first diagonal branch, while reperfusion was performed by subsequently removing that ligation. The animals were divided into four groups. […] Mitochondria was obtained by removing the heart immediately after the end of ischemia or reperfusion, washing with cold physiological saline, promptly cutting out the ischemic or reperfused area and the normal area, and immediately performing preparation from the respective area according to the method described by […], et al. in Arch. Biochem. Biophys., Vol. 94, pp. 148-155, 1961. The glutathione content of the mitochondria was measured by applying the method described by Tietze in Anal. […] Evaluation of mitochondrial function was performed according to the method described by Sugiyama, et al. in Am. […]

[3] = test system: coronary ischemia-reperfusion model using dogs; assay: Arrhythmia during coronary ischemia and reperfusion (electrocardiogram); settings: dog; for Number of Ventricular Premature Beats, 1 Hour of Reperfusion / Total Duration of Ventricular Tachycardia, 1 Hour of Reperfusion / effect on total duration of ventricular tachycardia during reperfusion / occurrence of arrhythmia (ventricular premature beats) during reperfusion: 10 mg/kg i.v. just before reperfusion; for Number of Ventricular Premature Beats, 2 Hours of Ischemia / Total Duration of Ventricular Tachycardia, 2 Hours of Ischemia: during 2 h ischemia, before the drug was given
Experimental: After anesthetizing 52 adult mongrel dogs of either sex weighing ca. 10 kg by intraperitoneal administration of 50 mg/kg of sodium pentobarbital, breathing tubes were immediately intubated endotracheally and artificial ventilation was continued using a Harvard ventilator. Electrocardiogram electrodes were attached, and monitoring and recording were continued throughout the experiment. Following insertion of cannulas in the right femoral vein and right femoral artery, the cannulas were used for continuous intravenous drip of physiological saline to replenish water or administration of the test preparation, and monitoring of arterial blood pressure, respectively. After performing left thoracotomy in the fourth or fifth intercostal space, the pericardium was torn to expose the heart. Ischemia was induced by ligating the left anterior descending coronary artery immediately distal to the first diagonal branch, while reperfusion was performed by subsequently removing that ligation.
The animals were divided into four groups. Group 1 (n=9) was subjected to ischemia for 2 hours, group 2 (n=17) was subjected to ischemia for 2 hours followed by reperfusion for 1 hour, group 3 (n=10) was subjected to ischemia for 2 hours followed by reperfusion for 1 hour plus intravenous injection of 10 mg/kg of γ-GCE just before reperfusion, and group 4 (n=16) was subjected to 2 hours of ischemia followed by 1 hour of reperfusion plus intravenous injection of 10 mg/kg of reduced glutathione (GSH, control drug) just before reperfusion.
Evaluation of arrhythmia was performed by analyzing the electrocardiogram to determine the presence of arrhythmia, or in other words, the number of ventricular premature beats, as well as the total duration of ventricular tachycardia, which was defined as more than three successive ventricular premature beats.

[4] = test system: liver tissue mitochondria; assay: Liver tissue mitochondrial function in liver ischemia-reperfusion; settings: rat, 50 mg/kg i.v. before ischemia, FIGS. 2A and 2B; for effect on recovery of liver mitochondrial function during reperfusion: 1 h reperfusion; for effect on reduction of liver mitochondrial St. III O2 caused by ischemia: 2 h ischemia
Experimental: as §1, §2

[5] = test system: liver ischemia-reperfusion model using rats; assay: Glutathione concentration in liver tissue during liver ischemia-reperfusion; settings: rat, 50 mg/kg i.v.
Experimental: Male Wister rats weighing 250-300 g were fasted with free access to water 24 hours before the experiment. Seventy-two rats were divided into three groups of 24 animals each, i.e., the control group, the GSH administration group and the γ-GCE-administration group. Each rat was anesthetized by intraperitoneal administration of 40 mg/0.8 ml/kg of sodium pentobarbital, and the femoral vein was cannulated. In the GSH group and the γ-GCE group, 50 mg/kg of GSH or γ-GCE respectively were administered intravenously. Physiological saline was then infused for volume replacement in each group, as a continuous intravenous infusion at a rate of 0.8 ml/hr with an injection pump throughout the experiment. Thirty minutes after starting injection of physiological saline, the abdomon was opened by a midline incision and the liver hilus was exposed. According to the method described by Hasselgren, et al. in J. Surg. Res., Vol. 34, pp. 409-414, 1984, all vessels to the left and median lobes of the liver, more specifically, hepatic artery, portal vein and the bile duct, were clamped to produce an ischemic state for 2 hours. Since blood vessels to the remaining parts of the liver were not occluded by this method, poral stasis could be avoided which was of special relevance for circulation stability in rats. Thereafter, occlusion of all vessels was released by removing the clamp to allow reperfusion for 1 hour. The abdominal walls were closed during ischemia and reperfusion.
Using 18 rats in each group, the livers of 6 animals from each group were removed before ischemia, after 2 hours of ischemia, and after 1 hour of reperfusion, respectively. A portion of the liver from each animal was rapidly frozen in liquid nitrogen and used for measurement of glutathione,adenine nucleotides and lipid peroxide. From the remaining portion of the liver, mitochondria was immediately extracted according to the method described by Hogeboom and Schneider in the J. Biol. Chem., Vol. 172, p. 619, 1948. In other experiments, immediately after starting reperfusion, blood from the hepatic vein was collected using 6 rats from each group. These blood samples were then used to measure leaked adenine nucleotides. In addition, after 1 hour of said reperfusion, blood samples were also drawn, which were then used to measure the activity of the leaked liver cell enzymes.
Evaluation of ischemia-reperfusion injury was performed by measuring liver tissue (1) mitochondrial function, (2) glutathione concentration, (3) adenine nucleotides concentration, and (4) lipid peroxide concentration, as well as liver tissue derived (5) adenine nucleotides concentration in the hepatic vein immediately after starting reperfusion, and (6) liver cell enzyme activities in the blood after 1 hour of reperfusion. More specifically, the mitochondrial function in (1) was measured according to the method described by Chance, et al. in Adv. Enzymol., Vol. 17, p. 65, 1956. In addition, the quantitative determination of glutathione in (2) was performed using the same method as Experiment 1 on supernatant obtained by adding 10 vol/g of tissue weight of 2.5% (w/v) sulfosalicylic acid dihydrate aqueous solution to the liver tissue followed by homogenization and centrifugation. In addition, the quantitative determination of adenine nucleotides in (3) was performed by neutralizing the perchloric acid extract of the liver tissue with potassium hydroxide followed by removal of the precipitate and applying to an ion exchange HPLC column according to the method described by Sugino, et al. in J. Chromatogr., Vol. 361, pp. 427-431, 1986. In addition, the measurement of lipid peroxide in (4) was performed according to the thiobarbiturate method described by Ohkawa, et al. in Anal. Biochem., Vol. 95, p. 351, 1979. […]

Row | SMILES | Adenine nucleotides concentration in hepatic vein immediately after starting reperfusion [1] | effect on reduction in cardiac muscle mitochondrial function (St. III O2, RCI) during reperfusion [2] | Number of Ventricular Premature Beats, 1 Hour of Reperfusion [3] | Total Duration of Ventricular Tachycardia, 1 Hour of Reperfusion [3] | effect on total duration of ventricular tachycardia during reperfusion [3] | occurrence of arrhythmia (ventricular premature beats) during reperfusion [3] | Number of Ventricular Premature Beats, 2 Hours of Ischemia [3] | Total Duration of Ventricular Tachycardia, 2 Hours of Ischemia [3] | effect on recovery of liver mitochondrial function during reperfusion [4] | effect on reduction of liver mitochondrial St. III O2 caused by ischemia [4] | Liver tissue glutathione, GSH + GSSG, after 1 hour reperfusion [5] | Liver tissue glutathione, GSH, after 1 hour reperfusion [5] | Liver tissue glutathione, GSSG, after 1 hour reperfusion [5] | Liver tissue glutathione, GSH + GSSG, after 2 hours ischemia [5] | Liver tissue glutathione, GSH, after 2 hours ischemia [5] | Liver tissue glutathione, GSSG, after 2 hours ischemia [5] | Liver tissue glutathione, GSH + GSSG, before ischemia [5] | Liver tissue glutathione, GSH, before ischemia [5] | Liver tissue glutathione, GSSG, before ischemia [5] | also measured
1 | CCOC(=O)[C@H](CS)NC(=O)CC[C@H](N)C(=O)O [γ-GCE, γ-L-glutamyl-L-cysteine ethyl ester] | 1.96 ± 0.80 μmol/L serum | completely suppressed | 32 ± 30 | 3 ± 5 s | remarkably suppressed its increase during reperfusion | strikingly suppressed | 40 ± 51 | 1 ± 2 s | significantly promoted recovery of mitochondrial function during reperfusion | significantly suppressed reduction of St. III O2 caused by ischemia | 5.50 ± 0.26 μmol/g of liver wet weight | 4.97 ± 0.25 μmol/g of liver wet weight | 0.54 ± 0.09 μmol/g of liver wet weight | 5.87 ± 0.43 μmol/g of liver wet weight | 5.48 ± 0.42 μmol/g of liver wet weight | 0.39 ± 0.01 μmol/g of liver wet weight | 6.04 ± 0.35 μmol/g of liver wet weight | 5.65 ± 0.30 μmol/g of liver wet weight | 0.39 ± 0.07 μmol/g of liver wet weight | reduction of leakage of adenine nucleotides into the hepatic vein immediately after starting reperfusion [1]: over 50%; decrease of liver glutathione concentration throughout the experiment [5]: no significant decrease was observed throughout the experiment; liver glutathione concentration compared with control group or GSH administration group ([5]; throughout the experiment): significantly higher
2 | N[C@@H](CCC(=O)N[C@@H](CS)C(=O)NCC(=O)O)C(=O)O [GSH, reduced glutathione, reference compound] | 3.59 ± 1.28 μmol/L serum | no protective effects were observed whatsoever | 1731 ± 1574 | 983 ± 959 s | did not show such effect whatsoever | not suppressed at all | 42 ± 43 | 1 ± 2 s | did not show any protective effects whatsoever | did not show any protective effects whatsoever | 3.77 ± 0.64 μmol/g of liver wet weight | 3.40 ± 0.60 μmol/g of liver wet weight | 0.37 ± 0.05 μmol/g of liver wet weight | 4.40 ± 0.68 μmol/g of liver wet weight | 4.35 ± 0.65 μmol/g of liver wet weight | 0.35 ± 0.04 μmol/g of liver wet weight | 5.29 ± 0.38 μmol/g of liver wet weight | 4.91 ± 0.35 μmol/g of liver wet weight | 0.38 ± 0.06 μmol/g of liver wet weight | effect on leakage of adenine nucleotides into the hepatic vein [1]: did not significantly mitigate the leakage; liver glutathione concentration after reperfusion relative to the level prior to ischemia [5]: ~70%
